Measurements published in PMC10746112, “Synthesis and Pro-Apoptotic Effects of Nitrovinylanthracenes and Related Compounds in Chronic Lymphocytic Leukaemia (CLL) and Burkitt’s Lymphoma (BL)” (Molecules, 2023).
pIC50: −log10 of the molar value. “And” between values parts separate entries of the source, which are not always exact repeats. Equal values may be shown once. Read-outs that look alike come from different tables or passages of the source.

Legend:
[1] = test system: MUTU-I Burkitt’s lymphoma cell line; experiment: alamarBlue cell viability assay; settings: 24 h; for viability at 1 µM / viability at 10 µM: MUTU-I
[2] = test system: DG-75 Burkitt’s lymphoma cell line; experiment: alamarBlue cell viability assay; settings: for viability at 1 µM / viability at 10 µM: Homo sapiens, DG-75, 48 h; for % Viable Cells Remaining DG-75: 48 h
[3] = test system: MUTU-I Burkitt’s lymphoma cell line; settings: human, 24 h, 10 µM
[4] = test system: MUTU-I Burkitt’s lymphoma cell line; settings: cited from earlier work; for pIC50: read-out: IC50 MUTU-I, previous work
[5] = test system: DG-75 Burkitt’s lymphoma cell line; settings: read-out: IC50 DG-75; previous work; cited from earlier work
PGA-1 CLL cell line = experiment: alamarBlue cell viability assay; settings: 24 h; for % Viability PGA-1: 10 µM
HG-3 CLL cell line = experiment: alamarBlue cell viability assay; settings: 24 h; for viability at 10 µM: read-out: % Viability HG-3, 10 µM, 24 h
[6] = test system: DG-75 Burkitt’s lymphoma cell line; settings: human, 48 h, 10 µM
[7] = read-out: % Viable Cells Remaining MUTU-1, 1 µM, 24 h
[8] = read-out: % Viable Cells Remaining MUTU-1, 10 µM, 24 h
[9] = read-out: % Viable Cells Remaining DG-75, 1 µM, 48 h
[10] = read-out: % Viable Cells Remaining DG-75, 10 µM, 48 h
[11] = CLL cell, read-out: % Viability PGA-1, 10 µM, 24 h
[12] = read-out: % Viable Cells Remaining MUTU-1
[13] = read-out: % Viable Cells Remaining DG-75

SMILES | viability at 1 µM [1, 7] [%] | viability at 10 µM [1, 8] [%] | viability at 1 µM [2, 9] [%] | viability at 10 µM [2, 10] [%] | further results
CNCCCC12CCC(c3ccccc31)c1ccccc12 [Maprotiline, maprotiline, reference compound] | 93.1 | 72 | 102 | 65 | 
c1ccc2c(CN3CCCC3)c3ccccc3cc2c1 [Compound 29b] | 108 | 106 | 93.2 | 97.2 | 
N#C/C=C/c1c2ccccc2cc2ccccc12 [Compound 23c] | 88.1 | 86.9 | 84.2 | 82 | 
O=C(c1c2ccccc2cc2ccccc12)N1CCCC1 [Compound 33d] | 91.6 | 95.6 | 69.4 | 67.1 | melting point: 149 to 151 °C; % Viable Cells Remaining MUTU-1 [3]: 95.6%
CC/C(=C\c1cc(Br)ccc1OC)[N+](=O)[O-] [Compound 10a, (E)-4-bromo-1-methoxy-2-(2-nitrobut-1-en-1-yl)benzene, reference compound] |  |  |  |  | pIC50 [4]: 6.35; pIC50 [5]: 5.85; viability at 1 µM (PGA-1 CLL cell line; CLL cell, read-out: % Viability PGA-1, 1 µM, 24 h): 96.4%; viability at 10 µM (PGA-1 CLL cell line; [11]): 0.97%
N#CC(C#N)=Cc1c2ccccc2c(Cl)c2ccccc12 [Compound 23b, 2-((10-Chloroanthracen-9-yl)Methylene)Malononitrile] |  |  |  |  | melting point: 196 to 198 °C; % Viable Cells Remaining MUTU-1 ([1]; 1 µM): 92.59%; % Viable Cells Remaining MUTU-1 ([1]; 10 µM): ~ 20% and 16.78%; % Viable Cells Remaining DG-75 ([2]; 1 µM): 85.59%; % Viable Cells Remaining DG-75 ([2]; 10 µM): ~ 55% and 52.84%; % Viability PGA-1 (PGA-1 CLL cell line): > 50%
O=C(c1c2ccccc2cc2ccccc12)N1CCCCCC1 [Compound 33c, Anthracen-9-yl(Azepan-1-yl)Methanone] | 86.8 | 77.4 | 69.6 | 71.6 | melting point: 134 to 137 °C; % Viable Cells Remaining MUTU-1 [3]: 77.4%
O/N=C/Cc1c2ccccc2cc2ccccc12 [Compound 32e] | 103 | 94.9 | 102 | 93 | 
C/C(=C\c1ccc(F)cc1)[N+](=O)[O-] [Compound 11c] |  |  |  |  | % Viable Cells Remaining MUTU-1 24 h 10 µM ([4]; nitrostyrenes, 10 µM, 24 h): 19.06%; viability at 10 µM (HG-3 CLL cell line; CLL cell): 8.76%; viability at 10 µM (PGA-1 CLL cell line; [11]): 3.7%
ClCc1c2ccccc2cc2ccccc12 [Compound 27, 9-(chloromethyl)anthracene] | 102 | 93.8 | 79 | 85.5 | % Viable Cells Remaining MUTU-1 [3]: 93.8%
N#CCc1c2ccccc2cc2ccccc12 [Compound 28, 2-(anthracen-9-yl)acetonitrile] | 95.2 | 88.8 | 93.8 | 85.2 | 
OCc1c2ccccc2cc2ccccc12 [Compound 26, anthracen-9-ylmethanol] | 106 | 94.9 | 102 | 93 | 
C/C(=C\c1c2ccccc2c(Cl)c2ccccc12)[N+](=O)[O-] [Compound 19e] | 105 | 98.6 | 82.5 | 99.6 | % Viable Cells Remaining MUTU-1 [3]: 98.6%; viability at 10 µM (HG-3 CLL cell line; CLL cell): 87%
CC/C(=C\c1c2ccccc2cc2ccccc12)[N+](=O)[O-] [Compound 19c] | 88.6 | 78 | 83.8 | 92.3 | viability at 10 µM (HG-3 CLL cell line; CLL cell): 72%; viability at 10 µM (PGA-1 CLL cell line; [11]): 66%
CCN(CC)C(=O)c1c2ccccc2cc2ccccc12 [Compound 33a] | 105 | 103 | 90.1 | 90.5 | 
CC(=O)/C=C/c1c2ccccc2cc2ccccc12 [Compound 25] | 107 | > 90 | 96.3 | > 90 | % Viable Cells Remaining MUTU-1 [3]: 103.2%; % Viable Cells Remaining DG-75 [6]: 100.5%
N#CC(C#N)=Cc1c2ccccc2cc2ccccc12 [Compound 23a] |  |  |  |  | viability at 1 µM [1, 12]: 91.9%; viability at 10 µM [1, 12]: 65.3%; viability at 1 µM [2, 13]: 104%; viability at 10 µM [2, 13]: 98.1%; viability at 10 µM (PGA-1 CLL cell line; CLL cell, read-out: % Viability PGA-1): > 50%
O=[N+]([O-])/C=C/c1c2ccccc2c(-c2ccccc2)c2ccccc12 [Compound 19j, (E)-9-(2-Nitrovinyl)-10-Phenylanthracene] | 68.5 | 1.29 | 83.5 | 1.5 | 

SMILES | viability at 1 µM [1, 7] [%] | viability at 10 µM [1, 8] [%] | viability at 1 µM [2, 9] [%] | viability at 10 µM [2, 10] [%] | further results
O=[N+]([O-])/C=C/c1c2cccc(Cl)c2cc2c(Cl)cccc12 [Compound 19k, (E)-1,8-Dichloro-10-(2-Nitrovinyl)Anthracene] | 71 | -0.18 | 88.7 | 0.15 | 
c1ccc2c(CN3CCCCCC3)c3ccccc3cc2c1 [Compound 29a] | 103 | 99 | 83.6 | 89.3 | 
O=[N+]([O-])/C=C/c1c2ccccc2c(Cl)c2ccccc12 [Compound 19d] | 70.8 | 7.6 | 75.1 | 57.1 | % Viable Cells Remaining MUTU-1 [3]: 7.61%; viability at 10 µM (HG-3 CLL cell line; CLL cell): 97%; viability at 10 µM (PGA-1 CLL cell line; [11]): 51.8%
O=C(c1c2ccccc2cc2ccccc12)N1CCOCC1 [Compound 33e] | 86.9 | 85.2 | 86.1 | 80.2 | 
COc1ccc2c(c1)OC(c1ccccc1)C([N+](=O)[O-])=C2 (centres unmarked) [Compound 10b, reference compound] |  |  |  |  | pIC50 [4]: 6.33; pIC50 [5]: 5.72
O=[N+]([O-])C=CCc1c2ccccc2cc2ccccc12 [Compound 20a, 9-(3-Nitroallyl)Anthracene] | 106 |  | 99.9 | 79 to 97 | % Viable Cells Remaining DG-75 [6]: 79.71%; viability at 10 µM (PGA-1 CLL cell line; [11]): > 50%
O=C(c1c2ccccc2cc2ccccc12)N1CCCCC1 [Compound 33f] | 83.1 | 84.8 | 72.5 | 78.8 | melting point: 181 to 183 °C; % Viable Cells Remaining MUTU-1 [3]: 84.8%
CC/C(=C\c1c2ccccc2c(Cl)c2ccccc12)[N+](=O)[O-] [Compound 19f, (E)-9-chloro-10-(2-nitrobut-1-en-1-yl)anthracene] | 96.6 | 97.5 | 105 | 78 | % Viable Cells Remaining MUTU-1 [3]: 97.5%
C/C(=C\c1c2ccccc2cc2ccccc12)[N+](=O)[O-] [Compound 19b, (E)-9-(2-nitroprop-1-en-1-yl)anthracene] | 99.8 | 88.2 | 102 | 89.3 | viability at 10 µM (HG-3 CLL cell line; CLL cell): 82%; viability at 10 µM (PGA-1 CLL cell line; [11]): 81%
O=[N+]([O-])/C=C/c1c2ccccc2c(Br)c2ccccc12 [Compound 19h, (E)-9-Bromo-10-(2-Nitrovinyl)Anthracene] | 51.2 | 3.36 | 84.8 | 70 | melting point: 227 to 230 °C; viability at 10 µM (PGA-1 CLL cell line; [11]): 36.9%
O=[N+]([O-])/C=C/c1cc2ccccc2c2ccccc12 [Compound 21, (E)-9-(2-Nitrovinyl)phenanthrene] |  |  | 99.5 | 60 | viability at 1 µM [1, 12]: 73.6%; viability at 10 µM [1, 12]: 1.68%; % Viable Cells Remaining DG-75 ([2]; 10 µM): 62.2%; viability at 10 µM (HG-3 CLL cell line; CLL cell): 29%; viability at 10 µM (PGA-1 CLL cell line; [11]): 11.8%
N/N=C/c1c2ccccc2c(Cl)c2ccccc12 [Compound 32b] | 105 | 82.5 | 94.8 | 100 | 
CN(C)C(=O)c1c2ccccc2cc2ccccc12 [Compound 33b] | 91.4 | 90.1 | 96.2 | 75 | melting point: 150 to 152 °C; % Viable Cells Remaining MUTU-1 [3]: 90.1%
N/N=C/c1c2ccccc2cc2ccccc12 [Compound 32a] | 97.5 | 95.5 | 104 | 102 | 
CC/C(=C\c1ccccc1F)[N+](=O)[O-] [Compound 11d] |  |  |  |  | % Viability HG-3 (HG-3 CLL cell line; 10 µM): 0.66%; viability at 1 µM (HG-3 CLL cell line; CLL cell, read-out: % Viability HG-3, 1 µM, 24 h): 14.5%; % Viability PGA-1 (PGA-1 CLL cell line): 0.02%
O/N=C/c1c2ccccc2cc2ccccc12 [Compound 32c] | 99.2 | 92.7 | 92.5 | 101 | 
O=[N+]([O-])/C(=C/c1ccc(Cl)cc1)Cc1ccc(Cl)cc1 [Compound 10c, reference compound] |  |  |  |  | pIC50 [4]: 5.53; pIC50 [5]: 5.19
